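Interpolation was linear, between the two tested concentrations surrounding the appropriate level; five concentrations were tested over 48 hours in 96-well plates. GI50 is the concentration that inhibits growth by half. TGI: concentration producing complete growth inhibition.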
Legend:
Assay in all cases: NCI-60 cell line screen, 48 h
HT29 colon = test system: HT29 colon
MOLT-4 leukemia = test system: MOLT-4 leukemia
IGROV1 ovarian = test system: IGROV1 ovarian
CAKI-1 renal = test system: CAKI-1 renal
M14 melanoma = test system: M14 melanoma
HCC-2998 colon = test system: HCC-2998 colon
UACC-62 melanoma = test system: UACC-62 melanoma
ACHN renal = test system: ACHN renal

Row | SMILES | GI50 (HT29 colon) [µM] | TGI (HT29 colon) [µM] | GI50 (MOLT-4 leukemia) [µM] | TGI (MOLT-4 leukemia) [µM] | GI50 (IGROV1 ovarian) [µM] | TGI (IGROV1 ovarian) [µM] | GI50 (CAKI-1 renal) [µM] | TGI (CAKI-1 renal) [µM] | GI50 (M14 melanoma) [µM] | TGI (M14 melanoma) [µM] | GI50 (HCC-2998 colon) [µM] | TGI (HCC-2998 colon) [µM] | GI50 (UACC-62 melanoma) [µM] | TGI (UACC-62 melanoma) [µM] | GI50 (ACHN renal) [µM] | TGI (ACHN renal) [µM]
1 | Cn1cc(C2=C(c3cn(C)c4ccc(Cl)cc34)C(=O)NC2=O)c2ccccc21 | 1.23 | 8.38 | 2.17 | 14.9 | 6.51 | > 21.7 | 2.75 | > 23.7 | 2.63 | > 24 | 6.76 | > 23.9 | 2.42 | 8.36 | 3.15 | > 25
2 | CCCCCCCCNCCC[C@@H](C)[C@H]1CC[C@H]2[C@@H]3[C@H](OCCCN)C[C@H]4C[C@H](OCCCN)CC[C@]4(C)[C@H]3C[C@H](OCCCN)[C@]12C | 1.71 | 7.59 | 3.12 | 9.69 | 1.49 | 3.25 | 3.09 | 15.4 | 1.64 | 4.87 | 2.04 | 7 | 1 | 3.84 | 2.02 | 6.41
3 | C=C1C(=O)OC2CC(C)C3CC(O)OC(OCC)C3(C)CC12 (stereo not given) | – | 38.5 | – | 56.4 | – | 48.1 | – | 42.9 | – | 28.5 | – | 30.6 | – | > 52.1 | – | 39.5
4 | Cc1cc(N=C2C=C(Br)C(=O)C(Br)=C2)cc(CN(CC(=O)O)CC(=O)O)c1O | – | > 100 | – | > 100 | – | > 100 | – | > 100 | – | > 100 | – | > 100 | – | > 100 | – | > 100
5 | COc1ncnc(S(=O)(=O)c2ccc(N=C3C(=O)N(CN4CCN(c5cc6c(cc5F)c(=O)c(C(=O)O)cn6C5CC5)CC4)c4ccc(Cl)cc43)cc2)c1OC | > 50 | > 50 | 24.9 | > 50 | > 50 | > 50 | 12.7 | > 50 | > 50 | > 50 | 37.9 | > 50 | 8.75 | > 50 | 10.2 | > 50
6 | CCN(c1cc(-c2ccc(CN3CCOCC3)cc2)cc(C(=O)NCc2c(C)cc(C)[nH]c2=O)c1C)C1CCOCC1 | 15.7 | 35.6 | 21.6 | 93.8 | 30.3 | > 63 | 20.3 | > 100 | 19.9 | 42.3 | 20.4 | 49.7 | 16 | 31.6 | 26 | 74.9
7 | COc1cc2c(cc1O)CC1c3c(cc(O)c(OC)c3-2)CCN1C (stereo not given) | – | > 100 | – | > 100 | – | > 100 | – | > 100 | – | > 100 | – | > 100 | – | > 100 | – | > 100
8 | O=c1/c(=C\c2ccc(F)cc2)sc2n1C(c1ccc(F)cc1)C1=C(N=2)c2ccc3ccccc3c2OCC1 (stereo not given) | > 100 | > 100 | > 100 | > 100 | > 100 | > 100 | – | > 66.9 | > 100 | > 100 | > 100 | > 100 | > 100 | > 100 | > 100 | > 100
9 | Cc1c2c(c(C)c3c4c(oc13)CCCC4)C=NCC2 | – | 29 | – | 45.1 | – | 26.5 | – | 28 | – | 44.5 | – | 36.1 | – | 29.6 | – | 37.7
10 | O=C1CCC(N2C(=O)c3ccccc3C2=O)C(=O)N1 (stereo not given) | > 100 | > 100 | – | > 100 | – | > 100 | – | > 100 | – | > 100 | – | > 100 | – | > 100 | – | > 100
11 | CC1=Cc2ccc(C)cc2C(=O)C1=O | – | 49.3 | – | 6.13 | – | 29.4 | – | 36.3 | – | 10.5 | – | 30.8 | – | 40.3 | – | 4.14
12 | CCCCCC[C@H](C)Nc1nc2ccccc2c2occc12 | 8.15 | > 100 | 3.47 | 16.2 | 0.787 | 13.2 | 10.6 | 26.3 | 7.88 | 20.8 | 1.4 | 8.94 | 11.6 | 24.1 | 11.7 | 23.9
13 | C=CC(=O)Nc1cc(N2CCN(CC)CC2)ccc1Nc1cc(N(C)C(=O)Nc2c(Cl)c(OC)cc(OC)c2Cl)ncn1 | 2.24 | 5.29 | 3.01 | 13.4 | 2.58 | 7.35 | 11.1 | 23.1 | 4.85 | 18.7 | 2.49 | 6.3 | 12.8 | 27.3 | 11.5 | 23.8
